The text below walks through data of ChEMBL document CHEMBL4371035, “Design, synthesis and biological evaluation of bifunctional inhibitors of membrane type 1 matrix metalloproteinase (MT1-MMP)” (Bioorg Med Chem, 2019).

Calls of active or inactive are those of the source. The calls are words filed in the database; no cut-off is given here.

One series addresses T1, Interstitial collagenase (Homo sapiens, UniProt P03956).
T1 sequence (P03956 whole entry): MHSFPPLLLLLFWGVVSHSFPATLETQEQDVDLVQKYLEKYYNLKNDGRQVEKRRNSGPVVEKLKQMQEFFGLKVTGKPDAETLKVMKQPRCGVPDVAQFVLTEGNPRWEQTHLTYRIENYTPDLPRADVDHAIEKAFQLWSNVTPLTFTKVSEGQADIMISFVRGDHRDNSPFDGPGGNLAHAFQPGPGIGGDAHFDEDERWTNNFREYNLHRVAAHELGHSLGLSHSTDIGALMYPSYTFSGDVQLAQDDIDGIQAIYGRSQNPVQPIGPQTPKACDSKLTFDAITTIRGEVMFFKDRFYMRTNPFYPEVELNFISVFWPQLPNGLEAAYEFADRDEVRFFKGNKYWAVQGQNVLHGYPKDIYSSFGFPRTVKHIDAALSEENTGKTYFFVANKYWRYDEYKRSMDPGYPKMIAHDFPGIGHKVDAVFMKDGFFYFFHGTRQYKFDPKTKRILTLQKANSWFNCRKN
Put plainly: Inhibition of recombinant human pro-MMP1 using Mca-Lys-Pro-Leu-Gly-Leu-Dap(Dnp)-Ala-Arg-NH2 as substrate preincubated for 3 hrs followed by substrate addition and measured every 10 secs for 15 mins in presence of APMA by fluorometric assay.

In the next series the test system is HT-1080. Put plainly: Cytotoxicity against human HT1080 cells at 10 to 50 uM after 4 hrs by MTS assay. It is filed as cell-based. To be noted: ht-1080, 4 h. Background: Tetrazolium assays rely on reduction of a dye to a coloured formazan, in cell work by metabolically active cells.
For series [1], the target named is T2, Matrix metalloproteinase-14 (Homo sapiens, UniProt P50281). Put plainly: Inhibition of MT1-MMP mediated collagenolytic activity in human HT1080 cells stimulated with type I collagen for 48 hrs followed by compound addition at 1 to 10 uM and measured after 48 hrs by Coomassie Blue staining-based collagen film degradation assay. It is filed as cell-based.
Series [2] addresses T2, Matrix metalloproteinase-14. Put plainly: Inhibition of MT1-MMP-mediated collagen invasion in human HT1080 cells attached to gelatin-coated Cytodex 3 microcarrier beads assessed as cell migration out from the bead surface into collagen matrix at 1 to 10 uM and measured after overnight incubation by microcarriers beads invasion assay. In kind it is cell-based.
Series [3] has the same target. Put plainly: Inhibition of MT1-MMP-mediated proMMP-2 activation in human HT1080 cells stimulated with type I collagen for 24 hrs followed by compound addition assessed as increase in proMT1-MMP (65 KDa) level at 0.01 to 10 uM and measured after 24 hrs by Western blot analysis. In kind it is cell-based. Background: A western blot detects proteins with antibodies after separation by electrophoresis.

For series [4] the target is unchanged. To be noted: 10 uM.
Description: Inhibition of MT1-MMP-mediated proMMP-2 activation in human HT1080 cells stimulated with type I collagen for 24 hrs followed by compound addition at 10 uM and measured after 24 hrs by gelatin zymography assay
For series [5] the target is unchanged. Conditions: 0.01 to 10 uM.
Description: Inhibition of MT1-MMP-mediated proMMP-2 activation in human HT1080 cells stimulated with type I collagen for 24 hrs followed by compound addition assessed as increase in active MT1-MMP (55 KDa) level at 0.01 to 10 uM and measured after 24 hrs by Western blot analysis
Series [6] has the same target. Conditions: 0.01 to 10 uM. This is another data set of the same source.
Description: Inhibition of MT1-MMP-mediated proMMP-2 activation in human HT1080 cells stimulated with type I collagen for 24 hrs followed by compound addition assessed as reduction in processed form of MT1-MMP (40 KDa) level at 0.01 to 10 uM and measured after 24 hrs by Western blot analysis
Series [7] deals with 72 kDa type IV collagenase (Homo sapiens, UniProt P08253). Put plainly: Inhibition of recombinant human proMMP2 using Mca-Lys-Pro-Leu-Gly-Leu-Dap(Dnp)-Ala-Arg-NH2 as substrate preincubated for 3 hrs followed by substrate addition and measured every 10 secs for 15 mins in presence of APMA by fluorometric assay.
The target in series [8] is Matrix metalloproteinase-9 (Homo sapiens, UniProt P14780). Put plainly: Inhibition of recombinant human proMMP9 using Mca-Lys-Pro-Leu-Gly-Leu-Dap(Dnp)-Ala-Arg-NH2 as substrate preincubated for 3 hrs followed by substrate addition and measured every 10 secs for 15 mins in presence of APMA by fluorometric assay.
Series [9] addresses T2, Matrix metalloproteinase-14. Briefly: Inhibition of recombinant human MT1-MMP catalytic domain using Mca-Lys-Pro-Leu-Gly-Leu-Dap(Dnp)-Ala-Arg-NH2 as substrate preincubated for 3 hrs followed by substrate addition and measured every 10 secs for 15 min by fluorometric assay.
Series [10] can be described thus: Aqueous solubility of the compound. In kind it is physicochemical. Conditions: water (aqueous).
Series [11] deals with T2, Matrix metalloproteinase-14. Briefly: Inhibition of MT1-MMP-mediated proMMP-2 activation in human HT1080 cells stimulated with type I collagen for 24 hrs followed by compound addition at 1 to 10 uM and measured after 24 hrs by gelatin zymography assay. It is filed as cell-based.
For series [12] the target is unchanged. Put plainly: Inhibition of MT1-MMP-mediated proMMP-2 activation in human HT1080 cells stimulated with type I collagen for 24 hrs followed by compound addition assessed as increase in proMT1-MMP (65 KDa) level at 1 to 10 uM and measured after 24 hrs by Western blot analysis. In kind it is cell-based.
The target is the same in series [13]. Put plainly: Inhibition of MT1-MMP-mediated proMMP-2 activation in human HT1080 cells stimulated with type I collagen for 24 hrs followed by compound addition at <0.1 uM and measured after 24 hrs by gelatin zymography assay. It is filed as cell-based.
For series [14] the target is unchanged. Briefly: Inhibition of MT1-MMP-mediated proMMP-2 activation in human HT1080 cells stimulated with type I collagen for 24 hrs followed by compound addition assessed as increase in active MT1-MMP (55 KDa) level at 1 to 10 uM and measured after 24 hrs by Western blot analysis. In kind it is cell-based.
The target is the same in series [15]. To be noted: 0.1 to 10 uM.
Description: Inhibition of MT1-MMP-mediated proMMP-2 activation in human HT1080 cells stimulated with type I collagen for 24 hrs followed by compound addition at 0.1 to 10 uM and measured after 24 hrs by gelatin zymography assay
For series [16] the target is unchanged. To be noted: 0.01 uM.
Description: Inhibition of MT1-MMP-mediated proMMP-2 activation in human HT1080 cells stimulated with type I collagen for 24 hrs followed by compound addition at 0.01 uM and measured after 24 hrs by gelatin zymography assay
The target is the same in series [17]. To be noted: 1 to 10 uM.
Description: Inhibition of MT1-MMP-mediated proMMP-2 activation in human HT1080 cells stimulated with type I collagen for 24 hrs followed by compound addition assessed as reduction in processed form of MT1-MMP (40 KDa) level at 1 to 10 uM and measured after 24 hrs by Western blot analysis
Series [18] has the same target. To be noted: 10 uM. The source holds these as a separate data set.
Description: Inhibition of MT1-MMP mediated collagenolytic activity in human HT1080 cells stimulated with type I collagen for 48 hrs followed by compound addition at 10 uM and measured after 48 hrs by Coomassie Blue staining-based collagen film degradation assay

One may read the IC50 as the concentration needed to halve the response being measured. For orientation: inhibition means the change of the read-out against control, counted positive when it falls. As a reminder, the solubility is the concentration that dissolves in the medium under given conditions.

Chain of Matrix metalloproteinase-9 (P14780 whole entry, the tested form may be a part): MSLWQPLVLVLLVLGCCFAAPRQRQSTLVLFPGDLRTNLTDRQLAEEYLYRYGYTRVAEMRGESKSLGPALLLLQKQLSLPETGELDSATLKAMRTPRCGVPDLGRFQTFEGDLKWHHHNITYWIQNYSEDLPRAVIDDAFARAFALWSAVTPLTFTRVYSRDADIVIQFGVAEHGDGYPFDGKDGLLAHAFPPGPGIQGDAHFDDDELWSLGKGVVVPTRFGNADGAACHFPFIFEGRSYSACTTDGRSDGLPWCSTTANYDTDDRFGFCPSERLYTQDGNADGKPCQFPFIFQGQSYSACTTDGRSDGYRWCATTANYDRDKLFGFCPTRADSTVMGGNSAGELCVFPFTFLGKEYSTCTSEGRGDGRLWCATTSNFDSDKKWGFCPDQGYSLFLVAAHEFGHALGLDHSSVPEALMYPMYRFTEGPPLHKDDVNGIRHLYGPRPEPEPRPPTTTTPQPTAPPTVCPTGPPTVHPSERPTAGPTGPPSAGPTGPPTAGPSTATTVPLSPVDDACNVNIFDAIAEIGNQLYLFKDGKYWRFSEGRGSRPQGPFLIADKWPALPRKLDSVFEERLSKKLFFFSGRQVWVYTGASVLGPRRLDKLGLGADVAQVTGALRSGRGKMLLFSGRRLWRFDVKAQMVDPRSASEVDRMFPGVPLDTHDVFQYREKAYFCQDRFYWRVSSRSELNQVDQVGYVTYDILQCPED
Chain of 72 kDa type IV collagenase (P08253 whole entry): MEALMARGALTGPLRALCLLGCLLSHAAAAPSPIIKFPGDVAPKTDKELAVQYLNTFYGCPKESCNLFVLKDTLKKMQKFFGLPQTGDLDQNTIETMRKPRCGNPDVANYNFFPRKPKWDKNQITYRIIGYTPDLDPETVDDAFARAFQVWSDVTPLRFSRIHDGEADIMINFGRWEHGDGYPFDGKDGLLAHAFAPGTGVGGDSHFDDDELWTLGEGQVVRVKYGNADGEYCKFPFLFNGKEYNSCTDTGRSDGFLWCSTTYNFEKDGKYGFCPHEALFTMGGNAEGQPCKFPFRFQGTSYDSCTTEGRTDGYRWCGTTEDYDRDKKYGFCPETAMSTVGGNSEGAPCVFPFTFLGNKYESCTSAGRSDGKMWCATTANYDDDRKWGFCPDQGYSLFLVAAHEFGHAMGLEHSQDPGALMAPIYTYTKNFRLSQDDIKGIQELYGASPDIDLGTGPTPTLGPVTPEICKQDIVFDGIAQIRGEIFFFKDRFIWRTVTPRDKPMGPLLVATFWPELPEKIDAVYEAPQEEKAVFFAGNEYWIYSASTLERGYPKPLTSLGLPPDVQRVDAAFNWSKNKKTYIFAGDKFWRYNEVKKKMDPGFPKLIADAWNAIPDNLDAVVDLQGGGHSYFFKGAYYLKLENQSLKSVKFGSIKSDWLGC

For `COc1ccc(-c2ccc(S(=O)(=O)N(OC(C)C)[C@H](CCN3C(=O)c4ccccc4C3=O)C(=O)NO)cc2)cc1`, on Interstitial collagenase, the IC50 was 170 nM. In addition, the Activity result in the series on HT-1080 is given as “Toxic”. For the same compound, the inhibition entry in series [1], in series [2] and in series [4] was “Active” in each case. Further, the inhibition entry in [3], in [5] and in series [6] was “inactive” throughout.

`COc1ccc(-c2ccc(S(=O)(=O)N(CCNC(=O)CCCNC(=O)c3cccc(C(=O)NCCCC(=O)NCCN([C@H](CCN4C(=O)c5ccccc5C4=O)C(=O)NO)S(=O)(=O)c4ccc(-c5ccc(OC)cc5)cc4)c3)[C@H](CCN3C(=O)c4ccccc4C3=O)C(=O)NO)cc2)cc1`: the IC50 on Interstitial collagenase turned out to be 45 nM; in series [7], 4.1 nM; in [8], 2.1 nM; in series [9], 7 nM.

For `COc1ccc(-c2ccc(S(=O)(=O)N(CCNC(=O)c3cccc(C(=O)NCCN([C@H](CCN4C(=O)c5ccccc5C4=O)C(=O)NO)S(=O)(=O)c4ccc(-c5ccc(OC)cc5)cc4)c3)[C@H](CCN3C(=O)c4ccccc4C3=O)C(=O)NO)cc2)cc1`, the IC50 stood at 150 nM at Interstitial collagenase, 13 nM in [7], 14 nM in series [8] and 14 nM in [9]. Also, the solubility in [10] was > 1000 µM. For the same compound, the Activity entry in the series on HT-1080 is on record as “Non-Toxic”. The inhibition entry in [11], in series [1] and in series [2] was “Active” in each case. The inhibition entry in series [12] and in series [14] was “Dose-dependent effect” in each case. The inhibition entry in series [13] was “inactive”.

For `O=C(NCC[C@@H](NS(=O)(=O)c1ccc(-c2ccccc2)cc1)C(=O)NO)c1cccc(C(=O)NCC[C@@H](NS(=O)(=O)c2ccc(-c3ccccc3)cc2)C(=O)NO)c1`, the IC50 at Interstitial collagenase is 870 nM; in series [7], 1.2 nM; in [8], 1.25 nM; in series [9] it was 80 nM.

Turning to `O=C(CCCNC(=O)c1cccc(C(=O)NCCCC(=O)NCC[C@@H](NS(=O)(=O)c2ccc(-c3ccccc3)cc2)C(=O)NO)c1)NCC[C@@H](NS(=O)(=O)c1ccc(-c2ccccc2)cc1)C(=O)NO`, the IC50 is 155 nM on Interstitial collagenase, 1.6 nM in series [7], 8.7 nM in series [8] and 41 nM in [9].

For `CNC(=O)[C@H](Cc1c[nH]c2ccccc12)NC(=O)[C@@H](CC(=O)NO)CC(C)C`, the inhibition entry in [12], in [14], in series [15] and in series [17] was “Active” each time. For the same compound, in [16], the inhibition result is “inactive”. For the same compound, in [18], the inhibition was 100%.
